Measurements: US5663150A, “Cyclopentane-β-amino acid tripeptides” (Bayer Aktiengesellschaft, priority 1995, dated 1997)

System: C. albicans
Experiment: systemic mouse candidiasis, in-vivo antimycotic activity
Settings: male CFW1 mice infected i.v. with 3×10^5 CFU C. albicans; 50 mg/kg 2 × daily p.o. for 5 days; survival up to 10th day p.i.; 10 animals per group
Procedure: Testing of in-vivo activity
The test model for antimycotic in-vivo actions used was systemic mouse candidias is:
Male CFW1 mice of weight 20 g were infected in the tail vein by injection of 3×10^5 CFU of C. albicans per animal.
Untreated control animals died completely within one week post-infectionem (p.i.) of a generalized candidiasis with granuloma formation in the kidneys. For activity testing, the preparations, dissolved in a 0.2% strength aqueous glucose-agar solution, were administered orally by stomach tube to the infected animals twice daily.
The daily doses were 2×50 mg/kg of body weight (BW), the treatment period was 5 days.
The survival rates of the treated animals were noted daily up to the 10th day p.i. In the case of the untreated control animals, no animals survived at this point.
For the preparations, 10 animals each were employed per dose and control group.

C=C1C[C@H](NC(=O)[C@@H](NC(=O)[C@@H](N)C(C)CC)C(C)CC)[C@H](C(=O)O)C1 (relative stereo) [Example 1, (-)-1,2-cis-(2-((S)-Isoleucyl)-(S)-isoleucylamino)-4-methylenecyclopentane-1-carboxylic acid]
Number of surviving animals: 8/10
